# “And” between values parts separate entries of the source, which are not always exact repeats. Equal entries are not always repeated.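 Where inhibition never reached the appropriate level, the endpoint shown equals the highest concentration tested. Otherwise, values were interpolated linearly from a five-concentration, 48-hour dose response in 96-well plates. GI50: concentration for 50% inhibition of growth. TGI: total growth inhibition.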
# Key:
# Experiment in all cases: NCI anticancer screen, dose series, 48 h
# ACHN renal = test system: ACHN renal
# CAKI-1 renal = test system: CAKI-1 renal
# HT29 colon = test system: HT29 colon
# MDA-MB-435 = test system: MDA-MB-435
# NCI-H23 lung = test system: NCI-H23 lung
# NCI-H460 lung = test system: NCI-H460 lung
# OVCAR-5 ovarian = test system: OVCAR-5 ovarian
# SF-268 CNS = test system: SF-268 CNS
# SN12C renal = test system: SN12C renal
# TK-10 renal = test system: TK-10 renal
Structure (SMILES),TGI (ACHN renal),TGI (CAKI-1 renal),TGI (HT29 colon),TGI (MDA-MB-435),TGI (NCI-H23 lung),TGI (NCI-H460 lung),TGI (OVCAR-5 ovarian),TGI (SF-268 CNS),TGI (SN12C renal),TGI (TK-10 renal),GI50 (CAKI-1 renal),GI50 (HT29 colon),GI50 (NCI-H23 lung),GI50 (NCI-H460 lung),GI50 (OVCAR-5 ovarian),GI50 (SF-268 CNS),GI50 (SN12C renal),GI50 (MDA-MB-435),GI50 (TK-10 renal)
CCOC(=O)Nn1c(C)nnc1-c1ccccc1,> 100 µM,> 100 µM,> 100 µM,> 100 µM,> 100 µM,> 100 µM,> 100 µM,> 100 µM,> 100 µM,> 100 µM,,,,,,,,,
Clc1ccc(/C=C/c2nc3ccccc3s2)cc1Cl,> 100 µM,48.6 µM,> 100 µM,> 100 µM,> 100 µM,> 100 µM,> 100 µM,> 100 µM,> 100 µM,> 100 µM,,,,,,,,,
Oc1cc2c3c(c1)c1cc4c(cc1c[n+]3CC2)OCO4,> 100 µM,> 50.3 µM,> 42.2 µM,> 55 µM,13.3 µM,> 23.9 µM,> 100 µM,8.9 µM,5.71 µM,> 75.7 µM,,,,,,,,,
O=C1/C(=C/c2ccc(O)cc2)CC/C1=C\c1ccc(O)cc1,> 100 µM,> 100 µM,> 100 µM,> 100 µM,> 100 µM,> 100 µM,> 100 µM,> 100 µM,> 100 µM,> 100 µM,,,,,,,,,
CC(C)CC(=O)OC[n+]1ccc(-c2c(COC(=O)NC(C)C)c(COC(=O)NC(C)C)c3n2CCC3)cc1,> 100 µM,> 100 µM,> 100 µM,> 100 µM,> 100 µM,> 100 µM,> 100 µM,> 100 µM,> 100 µM,> 100 µM,,,,,,,,,
Cc1ccccc1-n1c(=O)c2ncn(CCCl)c2n(-c2ccccc2C)c1=S,> 100 µM,> 100 µM,> 100 µM,> 100 µM,> 100 µM,> 100 µM,> 100 µM,> 100 µM,> 100 µM,> 100 µM,,,,,,,,,
Cc1nc(C(N)=S)sc1/C(CC(=O)C(=O)Nc1cccc2ccc(O)cc12)=N\NC(=O)c1ccncc1,> 100 µM,> 100 µM,> 100 µM,> 100 µM,> 100 µM,64.6 µM,> 100 µM,> 100 µM,> 100 µM,> 100 µM,,,,,,,,,
Cc1cccc(/C=N/NC(=S)Nc2ccccc2)n1,13.7 µM,> 42.3 µM,> 100 µM,> 100 µM,> 72.7 µM,9.13 µM,> 100 µM,> 100 µM,12.3 µM,> 95.3 µM,,,,,,,,,
COc1c(C)c(C/C=C(\C)CCCCO[Si](c2ccccc2)(c2ccccc2)C(C)(C)C)c(OC)c(OC)c1OC,25.1 µM,48.1 µM,> 46.4 µM,> 46.4 µM,38.7 µM,25 µM,> 46.4 µM,> 100 µM,> 46.3 µM,> 31.6 µM,,,,,,,,,
C[C@@]12C[C@@H](c3ccccc3O1)N1CCCCSC1=N2,> 100 µM,> 100 µM,> 100 µM,> 100 µM,> 100 µM,> 100 µM,> 100 µM,> 100 µM,> 100 µM,> 100 µM,,,,,,,,,
O=C(O)CN(CC(=O)O)C1CCCCC1N(CC(=O)O)CC(=O)NCCN=C=S (stereo not drawn),> 100 µM,> 100 µM,> 100 µM,> 100 µM,> 100 µM,> 100 µM,> 100 µM,> 100 µM,> 100 µM,> 100 µM,,,,,,,,,
O=S1(=O)NC(=NCc2c[nH]c3ccccc23)N(c2ccccc2)c2ccncc21,> 100 µM,> 100 µM,> 100 µM,> 100 µM,> 100 µM,> 100 µM,> 100 µM,75.6 µM,> 100 µM,> 100 µM,,,,,,,,,
O=[N+]([O-])/C(C(Cl)=C(Cl)Cl)=C(\SCc1ccccc1)N1CCCCC1,37.6 µM,> 100 µM,82.4 µM,35.5 µM,42.1 µM,78 µM,43.9 µM,74.3 µM,47.6 µM,> 100 µM,,,,,,,,,
C=C1c2nc3ccccc3n2C=C(c2ccccc2)N1c1ccc([N+](=O)[O-])cc1,12.8 µM,24 µM,> 61.1 µM,32.6 µM,38.5 µM,6.6 µM,40.7 µM,49.1 µM,> 95.2 µM,22.1 µM,,,,,,,,,
COc1cc2c(cc1OC)C(c1ccccc1CCCCl)=NCC2,> 100 µM,> 100 µM,> 100 µM,45.9 µM,> 100 µM,> 100 µM,> 100 µM,> 100 µM,> 100 µM,> 100 µM,,,,,,,,,
Oc1cccc2c(Cl)ccnc12,> 47.7 µM,> 58.5 µM,33.6 µM,> 78.5 µM,26.2 µM,> 100 µM,> 50.4 µM,> 39.3 µM,> 55.2 µM,> 100 µM,,,,,,,,,
COc1cc(/C=C2\S/C(=N/Nc3nc(-c4ccc(Br)cc4)cs3)NC2=O)cc(OC)c1OC,25.4 µM,46.6 µM,32.5 µM,46.3 µM,25.7 µM,37.4 µM,83.1 µM,> 100 µM,> 100 µM,36.6 µM,,,,,,,,,
COc1cc(/C=C/C(=N\NS(=O)(=O)c2ccc(C)cc2)c2sc(NNC(C)=O)nc2C)ccc1O,> 100 µM,> 100 µM,> 100 µM,> 100 µM,> 100 µM,> 100 µM,> 100 µM,> 100 µM,> 100 µM,> 100 µM,,,,,,,,,

Structure (SMILES),TGI (ACHN renal),TGI (CAKI-1 renal),TGI (HT29 colon),TGI (MDA-MB-435),TGI (NCI-H23 lung),TGI (NCI-H460 lung),TGI (OVCAR-5 ovarian),TGI (SF-268 CNS),TGI (SN12C renal),TGI (TK-10 renal),GI50 (CAKI-1 renal),GI50 (HT29 colon),GI50 (NCI-H23 lung),GI50 (NCI-H460 lung),GI50 (OVCAR-5 ovarian),GI50 (SF-268 CNS),GI50 (SN12C renal),GI50 (MDA-MB-435),GI50 (TK-10 renal)
O=c1[nH][nH]c(=O)n1Cc1ccccc1Cn1c(=O)[nH][nH]c1=O,> 100 µM,> 100 µM,> 100 µM,> 100 µM,> 100 µM,> 100 µM,> 100 µM,> 100 µM,> 100 µM,> 100 µM,,,,,,,,,
Cc1c2cnccc2c(C)c2c1c1ccccc1n2CCCN,0.893 µM,1.9 µM and 1.41 µM,1.01 µM and 0.292 µM,0.46 µM,1.18 µM and 0.482 µM,0.335 µM and 0.22 µM,1.71 µM and 0.874 µM,0.879 µM and 0.583 µM,1.36 µM and 1.1 µM,1.83 µM,0.779 µM and 0.295 µM,0.0277 µM,0.165 µM,0.113 µM and 0.0472 µM,0.196 µM,0.2 µM and 0.141 µM,0.25 µM,,
O=C(CCC(=O)c1ccc(Cl)cc1)NO,> 100 µM,> 100 µM,> 100 µM,> 100 µM,> 100 µM,> 100 µM,> 100 µM,> 100 µM,> 100 µM,> 100 µM,,,,,,,,,
Cc1cc(O)c2c(=O)c3ccccc3[nH]c2c1,> 100 µM,90.6 µM,38 µM,> 100 µM,> 100 µM,> 100 µM,> 100 µM,> 100 µM,> 100 µM,> 100 µM,,,,,,,,,
C(/c1ccco1)=c1/nc(-c2ccccc2)n2c1nc1ccccc12,> 100 µM,72.2 µM,> 100 µM,> 100 µM,> 100 µM,> 100 µM,> 100 µM,> 100 µM,> 100 µM,> 100 µM,,,,,,,,,
COc1ccc(C2c3cc4c(cc3OC(NNS(=O)(=O)c3ccc(C)cc3)C2C)OCO4)cc1 (stereo not drawn),> 100 µM,> 100 µM,> 100 µM,> 100 µM,> 100 µM,> 100 µM,> 100 µM,> 100 µM,> 100 µM,> 100 µM,,,,,,,,,
CC1(C)N=C(/C(Cl)=[N+](/[O-])C(=O)c2ccc(F)cc2)C(C)(C)N1O,36.5 µM,34.5 µM,41 µM,49.3 µM,42.8 µM,> 100 µM,36.1 µM,33.6 µM,29.2 µM,29.7 µM,,,,,,,,,
CCCN=C1CCN(Cc2ccccc2)c2ccccc2N1,94.1 µM,63.9 µM,90.1 µM,45 µM,41.5 µM,36.3 µM,> 100 µM,36.8 µM,> 100 µM,> 100 µM,,,,,,,,,
O=c1[nH]cc(N=Cc2cc(Cl)cc(Cl)c2O)c(=O)[nH]1,76.1 µM,57.7 µM,60.8 µM,61.8 µM,75.3 µM,> 100 µM,> 100 µM,47.4 µM,> 100 µM,> 100 µM,,,,,,,,,
CCCNC1=C2CC(C)CC(OC)[C@@H](O)[C@H](C)/C=C(\C)C(OC(N)=O)C(OC)/C=C\C=C(/C)C(=O)NC(=CC1=O)C2=O (stereo partly drawn),91.4 µM,> 100 µM,10.9 µM,28.8 µM,23 µM,29.4 µM,,27.1 µM,28.7 µM,> 100 µM,,,0.0639 µM,0.0541 µM,13.3 µM,0.134 µM,0.235 µM,0.0903 µM,11.6 µM
CC(=O)O[C@H]1C(=O)[C@]2(C)[C@@H](OC(=O)OCCC(O)CO)C[C@H]3OC[C@@]3(OC(C)=O)[C@H]2[C@H](OC(=O)c2ccccc2)[C@]2(O)C[C@H](OC(=O)[C@H](O)[C@@H](NC(=O)c3ccccc3)c3ccccc3)C(C)=C1C2(C)C (stereo partly drawn),> 100 µM,> 42.3 µM,0.526 µM,< 0.01 µM,21.7 µM,2.05 µM,> 36.6 µM,34.9 µM,19.8 µM,> 61.2 µM,,,,,,,,,
CCOC(=O)c1c2ccccc2n2c(N)c(C(N)=O)nnc12,26.6 µM,> 100 µM,> 100 µM,> 100 µM,66.2 µM,> 100 µM,> 100 µM,56.3 µM,> 100 µM,40.5 µM,,,,,,,,,
CC(C)c1ccc(/C=C2/C=C(c3ccc4ccccc4c3)OC2=O)cc1,> 100 µM,> 100 µM,> 100 µM,> 100 µM,> 100 µM,> 100 µM,> 100 µM,> 100 µM,> 100 µM,> 100 µM,,,,,,,,,
CN1CCN([C@H]2C[C@H]3[C@@H]4CC=C5C[C@@H](O)CC[C@]5(C)[C@H]4CC[C@]3(C)C2=O)CC1,> 100 µM,> 100 µM,> 100 µM,> 100 µM,> 100 µM,> 100 µM,> 100 µM,> 100 µM,> 100 µM,> 100 µM,,,,,,,,,
COC(=O)c1cc2c(n1S(=O)(=O)c1ccc(C)cc1)C(=O)C(=O)c1[nH]cc(C(=O)OCc3ccccc3)c1-2,0.682 µM,1.28 µM,1.15 µM,0.0301 µM,0.211 µM,2.83 µM,1.02 µM,1.24 µM,0.241 µM,1.51 µM,,,,,,,,,
O=[N+]([O-])C(=C1NCCN1)/C(Cl)=C(\Cl)Br,> 100 µM,30 µM,> 59 µM,> 63.2 µM,> 69.6 µM,> 100 µM,> 100 µM,> 89.9 µM,> 100 µM,> 100 µM,,,,,,,,,
C=C(Br)C(C)(Cl)CCC(Br)C(C)(C)Cl (stereo not drawn),75 µM,> 100 µM,> 100 µM,86.3 µM,> 100 µM,> 100 µM,> 100 µM,> 100 µM,> 100 µM,> 100 µM,,,,,,,,,

# From PubChem BioAssay (NCI)
